Experimental findings from US10752591B2, “18-20 member bi-polycyclic compounds” (Haro Pharmaceutical Inc., priority 2014, dated 2020) are described below.

SMILES strings stand for the structures.

The test system of one data set is purified rat liver HDAC. Put plainly: purified rat liver HDAC inhibition. Format: biochemical. The conditions noted are these: relative to compound 17. The method, then:
(§1) The effect of compounds on the enzymatic activity of purified recombinant human HDAC-1, -2, -3, -6, and -8 activity and of purified rat liver HDAC was examined by measuring the deacetylation of synthetic peptides in various preparations of HDACs. HDAC assays were performed using a two-step enzymatic reaction where enzyme activity is correlated to the release of […] (AMC). AMC fluorescence is measured in a fluorescent plate reading using λex380 nm and λen440 nm.
(§2) The reaction was allowed to proceed for 40 min at 37° C., after which developer solution (0.5% trypsin, 10 μM trichostatin A (TSA)) was added to obtain a final concentration of 0.1% trypsin, 2 μM TSA. After 30 minutes at room temperature, the amount of free fluorogenic AMC was measured as described above.

The next data set relates to RXR. Description: RXR-mediated transcription, RXRE luciferase reporter in MCF7 cells. It counts as cell-based. The text has this:
(§3) The effect of various compounds of the invention on RAR-mediated transcription in MCF7 breast cancer cells was examined by measuring their effect on the transcription of a luciferase reporter gene under the control of a TK promoter placed downstream of a RAR response element. In addition, the effect of the compounds on the closely related RXR-mediated transcription was examined by measuring their effect on the transcription of a luciferase reporter gene under the control of a TK promoter placed downstream of a RXR response element.
(§4) Typically, 10,000 cells were plated in 96 wells plates in phenol red-free RPMI medium supplemented with 10% charcoal-stripped Fetal Bovine Serum. After 24 hours, cells were transfected with 0.1 μg of luciferase reporter plasmid and 0.01 μg of a reporter plasmid expressing renilla luciferase (RLuc) gene under the control of a SV40 promoter, using Fugene 6 transfection reagent (0.5 μl/well Promega Corporation). Cells were treated in triplicate with compounds or vehicle (DMSO) for 24 hours. Luciferase and renilla luciferase activities were measured using Dual-Glo reagent (Promega Corporation). Luciferase activity was normalized in each well for renilla activity.
For orientation: In a reporter assay the amount or activity of a reporter protein is the signal.

Data set [1] deals with T1, purified recombinant human HDAC-8 (Homo sapiens, UniProt Q9BY41).
T1 construct: purchased Cayman Chem 10009465 (AMC assay (so in the source)); 19380 (HDAC-Glo assay)
T1 sequence (Q9BY41 1-377): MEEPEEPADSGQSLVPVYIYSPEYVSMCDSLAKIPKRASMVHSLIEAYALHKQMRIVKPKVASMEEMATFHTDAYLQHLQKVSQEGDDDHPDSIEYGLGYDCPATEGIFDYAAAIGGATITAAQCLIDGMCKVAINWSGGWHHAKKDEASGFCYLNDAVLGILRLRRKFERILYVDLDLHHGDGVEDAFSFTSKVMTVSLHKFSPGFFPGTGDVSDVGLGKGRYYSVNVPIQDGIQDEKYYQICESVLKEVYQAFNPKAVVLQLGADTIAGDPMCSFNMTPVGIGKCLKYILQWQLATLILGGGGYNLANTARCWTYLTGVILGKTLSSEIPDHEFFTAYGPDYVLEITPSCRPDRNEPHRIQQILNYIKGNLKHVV
Put plainly: HDAC-8 enzymatic inhibition (Boc-Lys(Tfa)-AMC / HDAC-Glo I/II). The conditions noted are these: relative to compound 17. It counts as biochemical. As to the method:
as §1
HDAC-8, HDAC-9, HDAC-10 and HDAC-11 were assayed using HDAC-Glo™ I/II Kit (Promega Corporation G6421) in a total volume of 110 μl following the manufacturer's instructions.
as §2

The target in data set [2] is purified recombinant human HDAC-1 (Homo sapiens, UniProt Q13547). Put plainly: HDAC-1 enzymatic inhibition (AMC fluorogenic peptide deacetylation). It counts as biochemical. As to conditions: up to. As to the method: as §1, §2
The test system of data set [3] is IMR-32 neuroblastoma cells. Put plainly: cytotoxicity, cell survival (CellTiterGlo) in IMR-32. It counts as cell-based. The conditions noted are these: relative to compounds 17 and 8. The method, then:
(§5) The cytotoxicity of compounds was examined and directly compared to compound 17, by measuring cell survival of clonal tumor cell lines IMR-32, BE2C (neuroblastoma), as well as MDA-MB-231, BT20, HCC-38 (Basal) and MCF7 (luminal) breast cancer cells (ATCC). Cells were cultured in phenol red-free RPMI medium supplemented with 10% FBS and 1 mM Ala-Glu. Typically, 10,000-20,000 cells/well were plated in a 96 well plate (Costar 3197). Cells were exposed to compounds or vehicle (1% DMSO final). Cells were maintained in the presence of compound for four or five days. Media and compounds were renewed every 48 hours. Cell survival was measured using the luminescence CellTiterGlo kit (Promega Corporation) and expressed as relative light unit as fold over DMSO.
On the technique in general: Cellular ATP, detected with luciferase, serves as a proxy for viable cell number.

Another data set deals with RAR. Put plainly: RAR-mediated transcription, RARE-tk luciferase reporter in MCF7 cells. It counts as cell-based.
Text: as §3, §4

In data set [4] the test system is BE-2C neuroblastoma cells. Description: cytotoxicity, cell survival (CellTiterGlo) in BE-2C. Format: cell-based. As to conditions: BE-2C cells. As to the method: as §5
The test system of data set [5] is MDA-MB-231 breast cancer cells. Put plainly: cytotoxicity, cell survival (CellTiterGlo) in MDA-MB-231. It counts as cell-based. As to conditions: MDA-MB-231 cells. The method, then:
as §5

The subject of another data set is C2Cl2 cells. Description: myoblast fusion in long term C2Cl2 cultures (MHC immunocytochemistry). Format: cell-based. The conditions noted are these: long-term culture, suboptimal RPMI media with 2% horse serum. As to the method:
The effect of compounds on myoblast fusion was examined in C2Cl2 cells maintained in RPMI media supplemented with 2% horse serum. C2Cl2 myoblastic cells where purchased from the American Type Culture Collection (ATCC) and maintained undifferentiated in RPMI media (Corning) supplemented with 2 mM L-Alanine-L-Glutamine (ATCC) and 1 mM pyruvate (Corning). Undifferentiated cells where maintained below 70% confluence. For long term cultures and compound treatment, cells where plated at high density CellBIND Culture Dishes (corning 3294, 3296, 3337) and in RPMI supplemented with 2% Horse Serum (Gibco) and 2 mM L-Alanine-L-Glutamine (ATCC) and 1 mM pyruvate (Corning). Compounds were dissolved in DMSO at 1000 time the final concentration and diluted 1-in-1000 in the media covering the cells. Media and compounds were changed daily. For immunocytochemistry, cells were fixed in 2% PFA in HBSS for 10 minutes and left in HBSS at 4° under humidified atmosphere and processed for immunocytochemistry. For myosin heavy chain detection (MHC), cells were first incubated in 100 ul-1 ml 0.15 M Glycine in DPBS for 10 minutes, rinse with DPBS. 100 ul-1 ml 0.5% Triton-X in DPBS was added for 10 minutes, rinsed with DPBS, and followed by incubation with 100 ul blocking agent (10% goat serum in DPBS) for 30 min at room temperature. MF20 primary antibody in 10% goat serum in DPBS was added at 1/60 dilution for 30 min at room temperature and rinsed three times with 100 ul DPBS. IgG2b goat anti mouse secondary antibody (Jackson Immuno-Research) was added at 1:1000 in 10% goat serum in DPBS for exactly 30 min at room temperature then rinsed 3 times with 100 ul DPBS. A final rinse in H2O was performed and cells were covered with two drops of Elvanol and cover gently with cover slip and allowed to dry in the dark for 24-48 hours.

In data set [6] the test system is Lys40 acetylated alpha tubulin. Description: intracellular acetylation of alpha-tubulin in BE-2C cells. Format: cell-based. As to conditions: 16 hours. The method, then:
The effect of certain compounds on intracellular acetylation of target proteins was tested in high risk neuroblastoma cells, BE-2C and IMR-32 cells.
BE-2C cells were grown to confluence in phenol-red-free RPMI media supplemented with 10% FBS and 2.5 mM Ala-Glu. […] Total and Lys 40 acetylated alpha tubulin were detected using specific antibodies.
Beta actin, total and Lys382 acetylated p53, and Lys40 acetylated alpha, and total tubulin were detected using antibodies (Cell Signaling #8557, #2524 #2525, #12152 and #2144 respectively) using manufacturer recommended conditions.

Sequence of purified recombinant human HDAC-1 (Q13547 whole entry): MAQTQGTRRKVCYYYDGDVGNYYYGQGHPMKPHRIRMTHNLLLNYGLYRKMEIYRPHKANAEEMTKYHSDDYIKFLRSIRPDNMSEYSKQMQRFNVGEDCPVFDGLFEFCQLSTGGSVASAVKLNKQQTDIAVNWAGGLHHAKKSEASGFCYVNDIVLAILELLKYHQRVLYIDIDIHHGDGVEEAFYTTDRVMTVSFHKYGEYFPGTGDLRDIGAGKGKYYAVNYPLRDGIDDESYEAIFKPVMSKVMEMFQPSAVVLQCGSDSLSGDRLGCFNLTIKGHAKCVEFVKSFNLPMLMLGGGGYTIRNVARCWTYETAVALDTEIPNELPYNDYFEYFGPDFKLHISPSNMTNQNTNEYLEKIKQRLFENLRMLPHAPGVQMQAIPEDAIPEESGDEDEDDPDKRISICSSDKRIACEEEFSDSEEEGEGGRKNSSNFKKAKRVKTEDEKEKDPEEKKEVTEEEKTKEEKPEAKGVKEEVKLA

On to `CC1(C)CCC(C)(C)c2cc(-c3c[nH]c4ccc(C(=O)NO)cc34)ccc21` [Compound 5], for which the “times more potent than compound 17 in inhibition of purified rat hepatic HDAC” value in the data set with purified rat liver HDAC is recorded as “six”. Moreover, the “transcriptional activation of RXR / RXRE-promoter” value in the data set with RXR is on record as “none”. For the same compound, the “times/fold more potent than compound 17 in HDAC-8 inhibition” value in data set [1] was “over 200”. In data set [2], the “maximal inhibition of HDAC-1 activity” value was ~50%. Besides, the “fold more potent than compounds 17 and 8 in killing IMR-32 cells” value in [3] was “ten”.
Turning to `CC1(C)CCC(C)(C)c2cc(-c3ccc4nc(C(=O)NO)ccc4c3)ccc21` [Compound 8], the “times more potent than compound 17 in inhibition of purified rat hepatic HDAC” value in the data set on purified rat liver HDAC was “at least three”. Also, the “transcriptional activation of RXR / RXRE-promoter” value in the data set on RXR is reported as “none”. Besides, the “RARE-dependent luciferase expression” value in the data set with RAR was “activated”.
Turning to `CC1(C)CCC(C)(C)c2cc(-c3c[nH]c4cc(C(=O)NO)ccc34)ccc21` [Compound 18], the “transcriptional activation of RXR / RXRE-promoter” value in the data set on RXR is recorded as “none”. The “RARE-dependent luciferase expression” value in the data set on RAR is reported as “activated”. Also, the “cytotoxic potency compared with compound 17, SAHA, Ricolinistat” value in [4] is listed as “more potent than compound 17, SAHA or Ricolinistat”; in data set [5] it was “more potent than compound 17, SAHA or Ricolinistat”. Further, the “maximal inhibition of HDAC-1 activity” value in data set [2] is on record as ~50%.
On to `CC1(C)CCC(C)(C)c2cc(-c3ccc4cc(C(=O)NO)[nH]c4c3)ccc21` [Compound 19], for which the “transcriptional activation of RXR / RXRE-promoter” value in the data set on RXR is on record as “none”. Also, in the data set on RAR, the “RARE-dependent luciferase expression” value is recorded as “activated”.
As to `CC1(C)CCC(C)(C)c2cc(-c3ccc4cc(C(=O)NO)cnc4c3)ccc21` [Compound 20, N-hydroxy-7-(5,5,8,8-tetramethyl-5,6,7,8-tetrahydronaphthalen-2-yl)quinoline-3-carboxamide], the “transcriptional activation of RXR / RXRE-promoter” value in the data set on RXR is given as “none”. For the same compound, the “RARE-dependent luciferase expression” value with RAR was “activated”.
For `CC1(C)CCC(C)(C)c2cc(-c3ccc4ccc(C(=O)NO)cc4c3)ccc21` [Compound 21, N-hydroxy-5′,5′,8′,8′,-tetramethyl-5′,6′,7′,8′-tetrahydro-[2,2′-binaphthalene]-7-carboxamide], the “transcriptional activation of RXR / RXRE-promoter” value with RXR is recorded as “none”.
`C/C(=C\c1ccc(C(=O)NO)cc1)c1ccc2c(c1)C(C)(C)CCC2(C)C` [Compound B, (E)-N-hydroxy-4-(2-(5,5,8,8-tetramethyl-5,6,7,8-tetrahydronaphthalen-2-yl)prop-1-en-1-yl)benzamide]: the “fusion of single cells into multinucleated C2Cl2 myotubes” value in the data set with C2Cl2 cells is “enhances the fusion”.
For the compound `O=C(CCCCCCNC(=O)c1cnc(N(c2ccccc2)c2ccccc2)nc1)NO` [Ricolinostat], the “Lysin (K) 40 alpha-Tubulin acetylation” value in data set [6] (2 uM) was “pronounced Lysin (K) 40 alpha-Tubulin acetylation”.
Consider `O=C(CCCCCCC(=O)Nc1ccccc1)NO` [SAHA, suberoylanilide hydroxamic acid], for which the “Lysin (K) 40 alpha-Tubulin acetylation” value in data set [6] (2 uM) is given as “pronounced Lysin (K) 40 alpha-Tubulin acetylation”.
On to `CC(/C=C/C(=O)NO)=C\[C@@H](C)C(=O)c1ccc(N(C)C)cc1` [TSA, trichostatin A], for which the “Lysin (K) 40 alpha-Tubulin acetylation” value in [6] (1 uM) was “pronounced Lysin (K) 40 alpha-Tubulin acetylation”.
